Experimental data reported in EP0079675A1, “Oxazolidinedione derivatives” (PFIZER INC., priority 1981, dated 1983).

Key:
[1] = molecular target: T1, aldose reductase enzyme obtained from calf lens (Bos taurus, UniProt P16116); assay: inhibition of aldose reductase enzyme activity (procedure of S. Hayman et al., modified by K. Sestanj et al.); format: biochemical; details: partially purified calf lens aldose reductase, read-out: Percent Inhibition (%); for inhibition at 10 µM: 10^-5M; for inhibition at 1 µM: 10^-6M; for inhibition at 0.1 µM: 10^-7M
T1 construct: partially purified aldose reductase enzyme obtained from calf lens; from tissue; host or cells: calf lens
Protocol: (§1) The activity of the compounds of the present invention, as agents for the control of chronic diabetic complications, is determined by their ability to successfully pass one or more of the following standard biological or pharmacological tests, viz., (1) measuring their ability to inhibit the enzyme activity of isolated aldose reductase; (2) measuring their ability to reduce or inhibit sorbitol accumulation in the sciatic nerve of acutely streptozotocinized (i.e., diabetic) rats; (3) measuring their ability to reverse already-elevated sorbitol levels in the sciatic nerve and lens of chronic streptozotocin-induced diabetic rats; (4) measuring their ability to prevent or inhibit galactitol formation in the lens of acutely galactosemic rats, and (5) measuring their ability to delay cataract formation and reduce the severity of lens opacities in chronic galactosemic rats.
The following s^piro-oxindole oxazolidinedione final products of Examples 1-4, respectively, were tested for their ability to reduce or inhibit aldose reductase enzyme activity via the procedure of S. Hayman et al., as described in the Journal of Biological Chemistry, Vol 240, p.. 877 (1965) and as modified by K. Sestanj et al. in U.S. Patent No. 3,821,383. In every case, the substrate employed was partially purified aldose reductase enzyme obtained from calf lens.

[2] = tested on: sorbitol levels in diabetic rats; assay: inhibition of sorbitol formation/accumulation in diabetic rats; format: in vivo; details: oral route, dose levels ranging from 0.5 mg./kg. to 20 mg./kg.
From the text: As previously indicated, the spiro-oxindole oxazolidinedione compounds of this invention are readily adapted to therapeutic use as aldose reductase inhibitors for the control of chronic diabetic com^pli- cations, in view of their ability to reduce lens sorbitol levels in diabetic subjects to a statistically significant degree. […] Furthermore, the herein described compounds of this invention can be administered by either the oral or parenteral routes of administration. […]
as §1

inhibition at 10 µM [1] | inhibition at 1 µM [1] | inhibition at 0.1 µM [1] | inhibition at 100 µM ([1]; 10^-4M) | Compound | inhibit the formation of sorbitol levels [2]
87% | 65% | 25% |  | O=C1NC(=O)C2(O1)C(=O)N(c1ccc(F)cc1)c1ccc(F)cc12 (centres unmarked) [Product of Example 1, 1-(p-fluorophenyl)-5-fluoro-spiro-[indoline-3,5-oxazolidine]-2,2',4'-trione] | 
80% | 45% | 17% |  | CC(C)N1C(=O)C2(OC(=O)NC2=O)c2cc(Cl)ccc21 (centres unmarked) [Product of Example 2, 1-isopropyl-5-chloro-s^piro-[indoline-3,5'-oxazolidine]-2,2',4'-trione] | 
67% | 31% | 10% |  | CN1C(=O)C2(OC(=O)NC2=O)c2cc(Cl)ccc21 (centres unmarked) [Product of Example 3] | 
89% | 81% | 60% | 100% | O=C1NC(=O)C2(O1)C(=O)N(Cc1ccc(Cl)cc1)c1ccc(Cl)cc12 (centres unmarked) [Product of Example 4, 1-(p-chlorobenzyl)-5-chloro-spiro-(indoline-3,5'-oxazolidine]-2,2',4'-trione] | to a significantly high degree
